Measured values from patent EP0235408B1, “Pharmaceutical composition and treatment” (THE UNIVERSITY OF TORONTO I[…], priority 1986, dated 1987).
Where “and” joins values, the source holds several entries; their conditions need not be identical. Equal values may be shown once. Where a name gives a salt, the structure may show the parent alone. Marks after values point to notes of the source that are not given here.

Legend:
rats = experiment: Effects on sleep and righting time, intraperitoneal administration (Example 6); details: 5 mM/kg body weight; for TIME SLEPT (mins) AVG 1: average based only on the animals which slept; for TIME SLEPT (mins): individual animals, asterisk = animal could be placed on its back for the time indicated, DNS = did not sleep
[1] = Toxicity in animal models; details: rat, in vivo; laboratory rats; read-out: dose required before a toxic level is reached
Procedure: In tests conducted in animal models, the compound ethyl 4-acetoxybutanoate has evidenced extremely low levels of toxicity. In tests conducted with laboratory rats as reported below, doses as high as 3000 mg per kilogram body weight are required, before a toxic level is reached.

laboratory rats [2] = experiment: Effects on sleep and righting time, oral administration (Example 5); assay type: in vivo; details: 10 mM/kg body weight; for TIME SLEPT (mins) AVG 1: average based only on the animals which slept
Procedure: The effects on sleep and- righting time of the oral and in traperitoneal administration of the prior art compound hydroxybutyrate sodium salt (GHB) and 4-acetoxybutanoate (EAB) according to the invention were determined, using groups of labotatory rats.
In a first experiment, GHB was administered at high dosage level (25 mM/Kg or 3 g/kg body weight) orally to three animals. […] The most likely reason is that oral GHB is poorly absorbed.
In a second experiment each of GHB and EAB was given to separate groups of twelve and eleven animals respectively, by oral administration at the same, lower dosage level of 10 mM/kg body weight.

laboratory rats [3] = experiment: Drug-induced sleep tracked by electroencephalograph (Example 4); assay type: in vivo; details: for induced sleep (duration): 500 mg per kilogram, EEG
Procedure: The preferred compound according to the invention was administered to labotatory rats, and the sleep of the animals induced by the drug was tracked by means of an electroencephalograph.
Compound ethyl 4-acetoxybutanoate, administered by mouth at a dosage of 250 mg per kilogram body weight induced sleep for 1 hour 28 minutes. At a dosage of 500 mg per kilogram administered in one case by mouth and in another case intraperitoneally, sleep was induced for 4 hours.
The administration to a similar laboratory rat, intraperitoneally, of a dosage of 500 mg per kilogram body weight of GHB induced sleep for only 1 hour 59 minutes, by contrast.

[4] = individual animals, asterisk = animal could be placed on its back for the time indicated, DNS = did not sleep
[5] = 250 or 500 mg per kilogram, by mouth or intraperitoneally
[6] = average of all the rats, whether they slept or not

## CCOC(=O)CCCOC(C)=O [EAB, ethyl 4-acetoxybutanoate]
rats
  TIME SLEPT (mins) RANGE: 39.30 to 259.00 min
  ill effects upon waking: none of them showed any ill effects
  muscle relaxation during sleep: exhibited a high degree of muscle relaxation
  TIME SLEPT (mins) AVG 1: 126.89 min
  TIME SLEPT (mins): 51.70* mins and 39.30* mins and 199.65* mins and 141.70* mins and 70.00* mins and 259.00* mins
[1]
  NOAEL: ≥ 3000 mg/kg
Laboratory rats [2]
  TIME SLEPT (mins) RANGE: 103.9 to 331.6 min
  animals put to sleep: put all rats to sleep
  animals that could be placed on their backs: four of eleven could be placed on their backs for more than five hours
  ill effects upon waking: none of the animals exhibited any ill effects
  muscle relaxation during sleep: loose and flaccid
  sign of toxicity: No sign of toxicity was observed
  TIME SLEPT (mins) AVG 1: 170.57 min
Laboratory rats [2]; [4]
  TIME SLEPT: 103.90 min and 120.30 min and 106.10 min and 125.75 min and 143.45 min and 120.00 min and 175.80 min
  TIME SLEPT (mins): 331.60* mins and 311.50* mins and 317.65* mins and 300.20* mins
Laboratory rats [3]; [5]
  ill effects upon waking: none of the animals exhibited ill effects
  muscle relaxation during sleep: the limbs and other body joints were quite flaccid
Laboratory rats [3]; by mouth
  induced sleep (duration): 4 h
Laboratory rats [3]; intraperitoneally
  induced sleep (duration): 4 h

## O=C(O)CCCO [GHB, hydroxybutyrate sodium salt, reference compound]
rats
  TIME SLEPT (mins) RANGE: 0 to 87.35 min
  TIME SLEPT (mins) AVG 1: 72.04 min
rats; [6]
  TIME SLEPT (mins) AVG 2: 48.03 min
rats; sodium salt
  TIME SLEPT (mins): 70.20* mins and 55.40* mins and 75.20* mins and 87.35* mins
Laboratory rats [2]
  TIME SLEPT (mins) RANGE: 0 to 74.7 min
  TIME SLEPT (mins) AVG 1: 65.76 min
Laboratory rats [2]; [6]
  TIME SLEPT (mins) AVG 2: 27.40 min
Laboratory rats [2]; individual animals, asterisk = animal could be placed on its back for the time indicated, DNS = did not sleep, sodium salt
  TIME SLEPT: 72.80 min and 64.70 min and 60.80 min and 55.80 min and 74.70 min
